This is an account of results in patent US9303000B2, “Olefin containing nuclear transport modulators and uses thereof” (KARYOPHARM THERAPEUTICS INC., priority 2011, dated 2016).

Like-named read-outs stand apart in the source and are kept apart here.

Broadly, the IC50 is the concentration at which inhibition is half-maximal. Low readings indicate greater potency in that assay, high ones weaker potency in that assay.

Data set [1] deals with T1, Crm1 (Homo sapiens, UniProt O14980). In words: Inhibition of nuclear export (RevGFP assay) / MTT cytotoxicity, Table 1.
T1 sequence (O14980 whole entry): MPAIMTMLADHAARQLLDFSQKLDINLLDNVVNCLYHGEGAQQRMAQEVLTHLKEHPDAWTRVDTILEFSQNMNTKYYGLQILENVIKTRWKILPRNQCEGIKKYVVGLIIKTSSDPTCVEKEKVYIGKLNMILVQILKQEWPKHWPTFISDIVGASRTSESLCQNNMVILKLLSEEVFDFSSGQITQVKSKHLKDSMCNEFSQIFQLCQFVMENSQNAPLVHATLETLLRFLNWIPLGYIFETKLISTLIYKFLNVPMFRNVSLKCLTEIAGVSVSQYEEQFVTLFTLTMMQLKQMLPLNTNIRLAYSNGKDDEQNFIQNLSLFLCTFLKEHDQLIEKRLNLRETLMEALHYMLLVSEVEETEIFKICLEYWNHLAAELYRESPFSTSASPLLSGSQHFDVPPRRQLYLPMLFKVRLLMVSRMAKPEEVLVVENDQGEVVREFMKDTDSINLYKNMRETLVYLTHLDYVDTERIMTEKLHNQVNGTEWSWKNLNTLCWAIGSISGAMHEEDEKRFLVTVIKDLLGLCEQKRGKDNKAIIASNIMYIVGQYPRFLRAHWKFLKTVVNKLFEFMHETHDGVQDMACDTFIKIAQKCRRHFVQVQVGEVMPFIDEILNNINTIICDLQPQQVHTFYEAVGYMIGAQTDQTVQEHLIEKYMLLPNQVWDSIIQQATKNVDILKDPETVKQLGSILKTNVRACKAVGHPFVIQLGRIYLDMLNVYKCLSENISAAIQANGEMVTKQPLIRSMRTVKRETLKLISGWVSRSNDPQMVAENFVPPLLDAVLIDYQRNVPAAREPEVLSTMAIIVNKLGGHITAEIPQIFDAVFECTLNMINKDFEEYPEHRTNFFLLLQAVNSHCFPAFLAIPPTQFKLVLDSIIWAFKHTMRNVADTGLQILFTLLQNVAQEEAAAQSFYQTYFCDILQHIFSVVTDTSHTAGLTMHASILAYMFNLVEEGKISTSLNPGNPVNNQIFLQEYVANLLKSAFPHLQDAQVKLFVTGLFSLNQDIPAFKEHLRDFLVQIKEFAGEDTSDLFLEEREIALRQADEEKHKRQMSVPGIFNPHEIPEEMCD
Description: (§1) The evaluation of the affinity of compounds for the Crm1 protein was determined in the RevGFP assay.
(§2) In this assay, U2OS-RevGFP cells are seeded onto clear-bottom, black, 384-well plates the day before the experiment. Compounds are serially diluted 1:2 starting from 40 μM in a separate 384-well plate in DMEM, and then transferred onto cells. Cells are incubated with compound for ˜1 hr before fixation with 3.7% formaldehyde and nuclei staining with Hoechst 33258. The amount of GFP in cell nuclei will be measured and compound IC50s determined (Kau et al, 2003).
(§3) The MTT cell proliferation assay was used to study the cytotoxic properties of the compounds. The assay was performed according to the method described by Roche Molecular Biochemicals with minor modifications. The assay is based on the cleavage of the tetrazolium salt, MTT, in the presence of an electron-coupling reagent. The water-insoluble formazan salt produced must be solubilized in an additional step. Cells, grown in a 96-well tissue culture plate, are incubated with the MTT solution for approximately 4 hours. After this incubation period, a water-insoluble formazan dye is formed. After solubilization, the formazan dye is quantitated using a scanning multi-well spectrophotometer (ELISA reader). […] The cells were seeded at 1.5×10^4 cells in each well of 96-well plate in 200 μL of fresh culture medium and were allowed to attach for overnight. The stock solutions of the compounds were diluted in cell culture medium to obtain eight concentrations of each drug, ranging from 1 nM to 20 μM. After 72 h of treatment the medium was aspirated and the cells were washed once with sterile 1×PBS. Each plate contained the samples, negative control and blank. The DMSO at less than 1% v/v was used as a negative control. […] The following formula was used to calculate the percent of inhibition: Inhibition (%)=(1−(ODo/OD))×100.
The subject of a further data set is HCT-116 tumor cells. In words: HCT-116 colorectal carcinoma xenograft model. Format: in vivo, mice. On the procedure:
FIG. 1 is a graph depicting the results of an HCT-116 colorectal carcinoma xenograft model. HCT-116 cells were inoculated into female athymic Balb c. nu^+/nu^+ mice. Once tumors reached an average volume of 200 mm^3, the animals were dosed with vehicle, 25 mg/kg 5-fluorouracil intraperitoneally and 75 mg/kg I-29 subcutaneously.
FIG. 2 is a graph depicting the results of an HCT-116 colorectal carcinoma xenograft model. HCT-116 cells were inoculated into female athymic Balb c. nu^+/nu^+ mice. Once tumors reached an average volume of 100 mm^3 the animals were dosed with vehicle, 50 mg/kg 5-fluorouracil intraperitoneally and 50 and 100 mg/kg I-34 orally. […] Mice were euthanized on Day 26 due to 20% weight loss. At Day 37, I-34 administered QDX5/week at 50 mg/kg inhibited tumor growth by 85%.
Female balb c nude mice (nu/nu) aged 6 to 8 weeks were obtained from Charles River Laboratories and were randomly and prospectively divided into six groups of ten mice. Mice were inoculated s.c. in flanks with 1×10^6 HCT-116 tumor cells. When cells reached 100-200 mm^3, animals were randomized into treatment groups of 5-10 mice each, excluding mice with the largest and smallest tumors. Mice were treated with vehicle, standard of care drugs (5-FU) or compounds of the invention at the indicated doses and regimen. Animals' weights and condition were recorded daily, and tumors were measured daily. On Day 37 (2 hours after the final dose), all mice were sacrificed, plasma and tumor tissue were collected for PK/PD analysis. Tumors were divided in 4 sections (3, flash-frozen in separate vials and 1 fixed in formalin for paraffin block preparation).
HCT-116 Colorectal tumor cells (ATCC# CCL-247) were grown in the DMEM tissue culture media with 10% fetal bovine serum and 1% penicillin/streptomycin. Cells were routinely trypsinized and passaged 1:4. On the day of implantation, cells were washed in PBS, trypsinized and resuspended in complete media. Cells were washed 3× in serum free medium. Cells were resuspended to a density of 1×10^7 cells/ml prior to being implanted s.c. into mice in a volume of 0.1 mL using a 23G needle.
Tumors were monitored daily. Tumors appearing exceeding 1500 mm^3 were measured, and animals with tumors greater than 1500 mm^3 and/or tumors that became necrotic and/or hindered movement were euthanized. Tumors were measured twice weekly by measuring each tumor in 2 dimensions, along the largest dimension (length, L) and perpendicular to this dimension (width, W). Tumor weights were calculated using the standard formula: (L×W^2)/2. The mean tumor weight and standard error of the mean were calculated for each group at each time point.
Statistical differences between treatment groups were determined using appropriate statistical techniques. A one-way ANOVA or ANOVA on ranks was used to evaluate the area-under the curve for weight gain and tumor volume.

Data set [2] has as its target T1, Crm1.
Description: as §1, §2, §3
The subject of the next data set is MM1.S cells. In words: MM1.S multiple myeloma xenograft model. Format: in vivo, mice. On the procedure:
FIG. 3 is a graph depicting the results of a MM1.S multiple myeloma model. MM1.S cells were inoculated into female athymic Balb c. nu^+/nu^+mice. Once tumors reached an average volume of 780 mm^3 the animals were dosed with vehicle and 75 mg/kg I-1 subcutaneously. Following 3 doses I-1 caused 50% reduction in tumor growth in a statistically significant manner.
FIG. 4 is a graph depicting the results of a MM1.S multiple myeloma model. MM1.S cells were inoculated into female athymic nu^+/nu^+ mice. Once tumors reached an average volume of 1400 mm^3 the animals were dosed with vehicle or 50 mg/kg I-29 subcutaneously every day. On the fourth day of dosing, vehicle group animals (n=10) reached an average volume of 2300 mm^3 and had to be euthanized due to tumor burden and poor health.
105 female athymic nude mice (8-9 weeks old, Harlan, USA) were grouped into […]. Animals were randomized such that the group average tumor volume was between 100-200 mm^3. Group average body weights were matched as closely as possible once average tumor volumes were randomized. The live-phase portion of this study will be 28 days in duration from the start of until the average group tumor volume reaches 2,000 mm^3, whichever comes first. Mice are to be euthanized with samples collected as and when they individually reach a tumor volume of approximately 2,000 mm^3.
MM1s Cell Culture. […]
Tumor volumes were monitored three times per week throughout the study (typically Monday, Wednesday and Friday) and calculated using the formula: Tumor volume=½(a^2 b); where a=width (smallest dimension) and b=length. […]
Animals were monitored as a group and their tumor volumes were measured three times per week at the same time of day. […]

The mark [3] stands for this setting: 50 mg/kg subcutaneously every day, following 8 doses, FIG. 4.

For `COc1cc(-c2ncn(/C=C\c3nnco3)n2)cc(Cl)n1` [Compound I-10, (Z)-2-(2-(3-(2-chloro-6-methoxypyridin-4-yl)-1H-1,2,4-triazol-1-yl)vinyl)-1,3,4-oxadiazole], the IC50 at Crm1 [1] was less than 1 µM. Consider `O=c1[nH]cc(F)c(=O)[nH]1` [Compound 5-FU, 5-fluorouracil, reference compound], for which the “efficacy on tumor growth” value in the data set with HCT-116 tumor cells (25 mg/kg intraperitoneally, 3 weeks of dosing, FIG. 1) is “did not display efficacy”. For the same molecule, in the data set with HCT-116 tumor cells (50 mg/kg intraperitoneally, Day 37, FIG. 2), the “inhibition of tumor growth compared to vehicle group” value was “no inhibition of tumor growth was observed”. The condition of animals result in the data set on HCT-116 tumor cells (50 mg/kg intraperitoneally, by Day 37, FIG. 2) is “euthanized due to poor condition”. The “inhibition of tumor growth” value in the data set on HCT-116 tumor cells (50 mg/kg intraperitoneally, first 3 weeks, FIG. 2) is recorded as “inhibited tumor growth during the first 3 weeks in a statistically significant manner”.

The molecule `CC(C)Oc1cc(-c2ncn(/C=C\c3ccccc3)n2)cc(C(F)(F)F)c1` [Compound I-39, (Z)-3-(3-isopropoxy-5-(trifluoromethyl)phenyl)-1-styryl-1H-1,2,4-triazole] returned a half-inhibitory concentration (IC50) against Crm1 [1] greater than 10 µM. The molecule “(Z)-2-(2-(3-(3-chloro-5-(trifluoromethoxy)phenyl)-1H-1,2,4-triazol-1-yl)vinyl)-1,3,4-oxadiazole [Compound I-32]” registered a half-inhibitory concentration (IC50) on Crm1 [2] of less than 1 µM.

For `COc1cc(-c2ncn(/C=C\c3ccccc3)n2)cc(C(F)(F)F)c1` [Compound I-38, (Z)-3-(3-methoxy-5-(trifluoromethyl)phenyl)-1-styryl-1H-1,2,4-triazole], the half-maximal inhibitory concentration (IC50) at Crm1 [1] was greater than 10 µM. On the same count and under the same terms, in the case of `CC(C)Oc1cc(-c2ncn(/C=C\c3nnco3)n2)cc(Cl)n1` [Compound I-31, (Z)-2-(2-(3-(2-chloro-6-isopropoxypyridin-4-yl)-1H-1,2,4-triazol-1-yl)vinyl)-1,3,4-oxadiazole] it was less than 1 µM; in that of `CC(C)Oc1cc(-c2ncn(/C=C\c3nnco3)n2)cc(C(F)(F)F)n1` [Compound I-30, (Z)-2-(2-(3-(2-isopropoxy-6-(trifluoromethyl)pyridin-4-yl)-1H-1,2,4-triazol-1-yl)vinyl)-1,3,4-oxadiazole], less than 1 µM; in that of `Clc1cccc(-c2ncn(/C=C\c3nnco3)n2)c1` [Compound I-26, (Z)-2-(2-(3-(3-chlorophenyl)-1H-1,2,4-triazol-1-yl)vinyl)-1,3,4-oxadiazole], less than 1 µM. Still for that read-out and setting: next, `Oc1cc(-c2ncn(/C=C\c3nnco3)n2)cc(C(F)(F)F)c1` [Compound I-36, (Z)-3-(1-(2-(1,3,4-oxadiazol-2-yl)vinyl)-1H-1,2,4-triazol-3-yl)-5-(trifluoromethyl)phenol]: less than 1 µM.

In turn, `COc1cc(-c2ncn(/C=C\c3nnco3)n2)cc(C(F)(F)F)c1` [Compound I-1, (Z)-2-(2-(3-(3-methoxy-5-(trifluoromethyl)phenyl)-1H-1,2,4-triazol-1-yl)vinyl)-1,3,4-oxadiazole] showed an IC50 on Crm1 [1] of less than 1 µM. The “reduction in tumor growth” value with MM1.S cells (75 mg/kg subcutaneously, following 3 doses, FIG. 3) was found to be 50%. For the molecule `CC(C)Oc1cc(-c2ncn(/C=C\c3nnco3)n2)cc(C(F)(F)F)c1` [Compound I-29, (Z)-2-(2-(3-(3-isopropoxy-5-(trifluoromethyl)phenyl)-1H-1,2,4-triazol-1-yl)vinyl)-1,3,4-oxadiazole], in the data set on HCT-116 tumor cells (75 mg/kg subcutaneously, 5 times/week, following 3 weeks of dosing, FIG. 1), the “reduction in tumor growth” value is 50%. On Crm1 [1], this molecule had an IC50 of less than 1 µM. Besides, in the data set with MM1.S cells (setting [3]), the “animals still alive (survival)” value is 10 out of 12 and the “reduction in tumor growth” value came to 50%. Turning to `COc1cc(-c2ncn(/C=C\c3ccccn3)n2)cc(C(F)(F)F)c1` [Compound I-21, (Z)-2-(2-(3-(3-methoxy-5-(trifluoromethyl)phenyl)-1H-1,2,4-triazol-1-yl)vinyl)pyridine], the IC50 at Crm1 [1] is greater than 10 µM. For `CC(C)Oc1cc(Cl)cc(-c2ncn(/C=C\c3nnco3)n2)c1` [Compound I-28, (Z)-2-(2-(3-(3-chloro-5-isopropoxyphenyl)-1H-1,2,4-triazol-1-yl)vinyl)-1,3,4-oxadiazole], the IC50 on Crm1 [1] is less than 1 µM. For `COc1cc(-c2ncn(/C=C\c3nnc(C)o3)n2)cc(C(F)(F)F)c1` [Compound I-2, (Z)-2-(2-(3-(3-methoxy-5-(trifluoromethyl)phenyl)-1H-1,2,4-triazol-1-yl)vinyl)-5-methyl-1,3,4-oxadiazole], the IC50 on Crm1 [1] was less than 1 µM. `N#Cc1cc(-c2ncn(/C=C\c3nnco3)n2)cc(C(F)(F)F)c1` [Compound I-35, (Z)-3-(1-(2-(1,3,4-oxadiazol-2-yl)vinyl)-1H-1,2,4-triazol-3-yl)-5-(trifluoromethyl)benzonitrile] showed an IC50 against Crm1 [1] of less than 1 µM.

On to `FC(F)(F)c1cc(-c2ncn(/C=C\c3nnco3)n2)cc(C(F)(F)F)c1` [Compound I-34, (Z)-2-(2-(3-(3,5-bis(trifluoromethyl)phenyl)-1H-1,2,4-triazol-1-yl)vinyl)-1,3,4-oxadiazole], for which the “inhibition of tumor growth” value in the data set with HCT-116 tumor cells (50 mg/kg orally QDX5/week, Day 37, FIG. 2) is listed as 85%. The molecule also came in with a weight loss with HCT-116 tumor cells (100 mg/kg orally QDX5/week, Day 26, mice euthanized, FIG. 2) of 20%. Besides, the “reduction of tumor growth” value in the data set with HCT-116 tumor cells (100 mg/kg orally QDX5/week, Day 26, FIG. 2) was “complete reduction of tumor growth”. Besides, the IC50 on Crm1 [1] is less than 1 µM. For the molecule `CC(C)Oc1cc(-c2ncn(/C=C\c3ccccn3)n2)cc(C(F)(F)F)c1` [Compound I-37, (Z)-2-(2-(3-(3-isopropoxy-5-(trifluoromethyl)phenyl)-1H-1,2,4-triazol-1-yl)vinyl)pyridine], the IC50 against Crm1 [1] is less than 1 µM. For `CS(=O)(=O)c1cc(-c2ncn(/C=C\c3nnco3)n2)cc(C(F)(F)F)c1` [Compound I-33, (Z)-2-(2-(3-(3-(methylsulfonyl)-5-(trifluoromethyl)phenyl)-1H-1,2,4-triazol-1-yl)vinyl)-1,3,4-oxadiazole], the IC50 on Crm1 [1] was less than 1 µM. `Clc1cccc(-c2ncn(/C=C/c3nnco3)n2)c1` [Compound I-27, (E)-2-(2-(3-(3-chlorophenyl)-1H-1,2,4-triazol-1-yl)vinyl)-1,3,4-oxadiazole]: the IC50 on Crm1 [1] lay within 1 to 10 µM.
